Assay: HILIC/SALT
Format: physicochemical
Settings: isocratic acetonitrile 0%, 10%, 20%, 30%, 40%, 50% and 60% in 0.2% aq. H3PO4, 30 °C

Substance: Ac-KWKSFLKTFSKAKKKKLKTLLKAISK-NH2 [Peptide D14]
- retention on Penta-HILIC column: No retention

Source: publication PMC3639484 (Journal of chromatography. A, 2013)
